Data published in ChEMBL document CHEMBL4425102, “Structure-Based Design of Tetrahydroisoquinoline-7-carboxamides as Selective Discoidin Domain Receptor 1 (DDR1) Inhibitors” (J Med Chem, 2016).
Active and inactive are the calls of the source. No cut-off for these calls is given here.

Experiments:
[1] = molecular target: Tyrosine-protein kinase ABL1 (Homo sapiens, UniProt P00519); assay: Inhibition of human full length recombinant His-tagged ABL1 expressed in baculovirus infected Sf9 insect cells using tyrosine 2 peptide as substrate preincubated for 1 hr measured after 2 hrs in presence of ATP by FRET-based Z'-Lyte assay
Sequence of Tyrosine-protein kinase ABL1 (P00519 whole entry, the tested form may be a part): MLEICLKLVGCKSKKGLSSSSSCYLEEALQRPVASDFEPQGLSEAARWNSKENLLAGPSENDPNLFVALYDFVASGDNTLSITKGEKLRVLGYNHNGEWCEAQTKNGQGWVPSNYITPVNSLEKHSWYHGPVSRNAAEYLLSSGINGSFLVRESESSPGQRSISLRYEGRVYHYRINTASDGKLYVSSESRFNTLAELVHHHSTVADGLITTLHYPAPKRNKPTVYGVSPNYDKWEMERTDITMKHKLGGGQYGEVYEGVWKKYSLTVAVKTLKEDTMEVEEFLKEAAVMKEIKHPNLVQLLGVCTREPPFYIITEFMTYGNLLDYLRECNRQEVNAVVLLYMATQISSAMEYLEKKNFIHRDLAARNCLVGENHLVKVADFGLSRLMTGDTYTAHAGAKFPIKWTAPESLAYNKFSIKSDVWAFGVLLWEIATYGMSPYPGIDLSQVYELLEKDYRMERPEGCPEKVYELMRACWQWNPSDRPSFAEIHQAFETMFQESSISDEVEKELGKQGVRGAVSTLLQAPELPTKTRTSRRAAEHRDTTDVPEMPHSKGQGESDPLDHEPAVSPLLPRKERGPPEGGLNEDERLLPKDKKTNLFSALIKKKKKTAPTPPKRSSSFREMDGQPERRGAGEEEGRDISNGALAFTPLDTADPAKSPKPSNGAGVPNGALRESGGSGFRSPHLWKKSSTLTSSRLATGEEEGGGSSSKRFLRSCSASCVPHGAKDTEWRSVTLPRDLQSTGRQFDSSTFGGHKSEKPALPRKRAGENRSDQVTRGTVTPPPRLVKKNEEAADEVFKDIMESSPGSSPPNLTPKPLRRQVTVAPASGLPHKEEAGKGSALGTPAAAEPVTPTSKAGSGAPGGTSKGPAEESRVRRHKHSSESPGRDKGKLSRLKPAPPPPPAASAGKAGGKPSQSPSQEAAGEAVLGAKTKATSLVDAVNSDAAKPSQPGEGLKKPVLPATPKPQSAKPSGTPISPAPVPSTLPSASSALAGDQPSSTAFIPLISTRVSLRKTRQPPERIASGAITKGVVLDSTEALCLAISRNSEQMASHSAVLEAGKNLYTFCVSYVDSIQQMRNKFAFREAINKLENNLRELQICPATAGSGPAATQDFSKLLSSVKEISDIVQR

[2] = molecular target: Epithelial discoidin domain-containing receptor 1 (Homo sapiens, UniProt Q08345); assay: biochemical
Sequence of Epithelial discoidin domain-containing receptor 1 (Q08345 whole entry, the tested form may be a part): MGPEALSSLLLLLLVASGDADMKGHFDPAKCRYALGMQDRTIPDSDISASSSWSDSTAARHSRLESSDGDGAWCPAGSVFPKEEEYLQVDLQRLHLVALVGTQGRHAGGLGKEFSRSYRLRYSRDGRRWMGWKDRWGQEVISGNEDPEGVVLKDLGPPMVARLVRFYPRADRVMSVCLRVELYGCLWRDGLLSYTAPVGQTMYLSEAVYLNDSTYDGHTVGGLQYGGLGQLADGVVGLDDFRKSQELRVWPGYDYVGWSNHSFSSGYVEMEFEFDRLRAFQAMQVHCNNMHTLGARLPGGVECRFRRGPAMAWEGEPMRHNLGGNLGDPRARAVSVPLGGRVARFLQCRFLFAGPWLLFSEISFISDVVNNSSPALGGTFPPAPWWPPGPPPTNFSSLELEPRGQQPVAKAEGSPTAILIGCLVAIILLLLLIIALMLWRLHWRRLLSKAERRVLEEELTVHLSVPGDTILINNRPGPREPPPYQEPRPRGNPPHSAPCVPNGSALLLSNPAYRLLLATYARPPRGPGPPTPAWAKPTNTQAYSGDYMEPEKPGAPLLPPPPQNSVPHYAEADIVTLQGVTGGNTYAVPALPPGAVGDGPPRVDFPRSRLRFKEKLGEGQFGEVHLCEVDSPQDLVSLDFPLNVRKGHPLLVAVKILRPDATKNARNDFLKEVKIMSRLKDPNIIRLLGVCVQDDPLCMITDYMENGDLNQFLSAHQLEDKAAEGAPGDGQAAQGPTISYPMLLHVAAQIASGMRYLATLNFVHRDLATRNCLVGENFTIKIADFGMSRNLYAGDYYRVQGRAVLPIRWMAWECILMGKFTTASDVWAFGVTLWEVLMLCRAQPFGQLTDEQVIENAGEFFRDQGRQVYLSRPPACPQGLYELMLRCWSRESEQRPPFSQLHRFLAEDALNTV

[3] = AUC (0 to infinity) in Sprague-Dawley rat at 20 mg/kg, po measured after 0.03 to 24 hrs by HPLC/MS analysis; type: ADME, organism-based; set-up: dose 20 mg/kg, route oral, time infinity; details: in vivo
[4] = AUC (0 to infinity) in ICR mouse at 1 mg/kg, iv measured after 5 mins to 24 hrs by HPLC/MS analysis; type: ADME, organism-based; set-up: dose 1 mg/kg, time infinity, route intravenous; details: in vivo
[5] = Half life in Sprague-Dawley rat at 4 mg/kg, iv by HPLC/MS analysis; type: ADME, organism-based; details: in vivo
[6] = Oral bioavailability in Sprague-Dawley rat at 20 mg/kg measured after 0.03 to 24 hrs by HPLC/MS analysis; type: ADME, organism-based; details: in vivo
[7] = Cmax in ICR mouse at 4 mg/kg, po measured after 15 mins to 24 hrs by HPLC/MS analysis; type: ADME, organism-based; set-up: dose 4 mg/kg, route oral; details: in vivo
[8] = Tmax in ICR mouse at 4 mg/kg, po by HPLC/MS analysis; type: ADME, organism-based; details: in vivo
Mus musculus [9] = assay: Protection against bleomycin-induced lung fibrosis in C57BL/6 mouse assessed as increase in alveolar spaces administered via oral gavage bid 14 days post bleomycin treatment measured on day 28 by Massons trichrome staining; type: functional, organism-based
Mus musculus [10] = assay: Protection against bleomycin-induced lung fibrosis in C57BL/6 mouse assessed as decrease in fibronectin level in lung at 10 to 50 mg/kg administered via oral gavage bid 14 days post bleomycin treatment measured on day 28 by immunoblot analysis; type: functional, organism-based
[11] = Tmax in Sprague-Dawley rat at 20 mg/kg, po by HPLC/MS analysis; type: ADME, organism-based; details: in vivo
Mus musculus [12] = assay: Protection against bleomycin-induced lung fibrosis in C57BL/6 mouse assessed as decrease in alpha-smooth muscle actin level in lung at 10 to 50 mg/kg administered via oral gavage bid 14 days post bleomycin treatment measured on day 28 by immunoblot analysis; type: functional, organism-based
Mus musculus [13] = assay: Protection against bleomycin-induced lung fibrosis in C57BL/6 mouse assessed as decrease in hydroxyproline level in lung administered via oral gavage bid 14 days post bleomycin treatment measured on day 28 […]; type: functional, organism-based
[14] = AUC (0 to infinity) in ICR mouse at 4 mg/kg, po measured after 15 mins to 24 hrs by HPLC/MS analysis; type: ADME, organism-based; set-up: dose 4 mg/kg, route oral, time infinity; details: in vivo
[15] = Cmax in ICR mouse at 1 mg/kg, iv measured after 5 mins to 24 hrs by HPLC/MS analysis; type: ADME, organism-based; set-up: dose 1 mg/kg, route intravenous; details: in vivo
[16] = Oral bioavailability in ICR mouse at 4 mg/kg measured after 15 mins to 24 hrs by HPLC/MS analysis; type: ADME, organism-based; details: in vivo
[17] = Cmax in Sprague-Dawley rat at 20 mg/kg, po measured after 0.03 to 24 hrs by HPLC/MS analysis; type: ADME, organism-based; set-up: dose 20 mg/kg, route oral; details: in vivo
[18] = AUC (0 to infinity) in Sprague-Dawley rat at 4 mg/kg, iv measured after 0.03 to 24 hrs by HPLC/MS analysis; type: ADME, organism-based; set-up: dose 4 mg/kg, time infinity, route intravenous; details: in vivo
Ephrin type-A receptor 8 = molecular target: T1, Ephrin type-A receptor 8 (Homo sapiens, UniProt P29322); assay: Binding affinity to wild type human partial length EPHA8 (608 to 920 residues) expressed in bacterial expression system preincubated for 1 hr measured after 30 mins by qPCR method
T1 sequence (P29322 whole entry): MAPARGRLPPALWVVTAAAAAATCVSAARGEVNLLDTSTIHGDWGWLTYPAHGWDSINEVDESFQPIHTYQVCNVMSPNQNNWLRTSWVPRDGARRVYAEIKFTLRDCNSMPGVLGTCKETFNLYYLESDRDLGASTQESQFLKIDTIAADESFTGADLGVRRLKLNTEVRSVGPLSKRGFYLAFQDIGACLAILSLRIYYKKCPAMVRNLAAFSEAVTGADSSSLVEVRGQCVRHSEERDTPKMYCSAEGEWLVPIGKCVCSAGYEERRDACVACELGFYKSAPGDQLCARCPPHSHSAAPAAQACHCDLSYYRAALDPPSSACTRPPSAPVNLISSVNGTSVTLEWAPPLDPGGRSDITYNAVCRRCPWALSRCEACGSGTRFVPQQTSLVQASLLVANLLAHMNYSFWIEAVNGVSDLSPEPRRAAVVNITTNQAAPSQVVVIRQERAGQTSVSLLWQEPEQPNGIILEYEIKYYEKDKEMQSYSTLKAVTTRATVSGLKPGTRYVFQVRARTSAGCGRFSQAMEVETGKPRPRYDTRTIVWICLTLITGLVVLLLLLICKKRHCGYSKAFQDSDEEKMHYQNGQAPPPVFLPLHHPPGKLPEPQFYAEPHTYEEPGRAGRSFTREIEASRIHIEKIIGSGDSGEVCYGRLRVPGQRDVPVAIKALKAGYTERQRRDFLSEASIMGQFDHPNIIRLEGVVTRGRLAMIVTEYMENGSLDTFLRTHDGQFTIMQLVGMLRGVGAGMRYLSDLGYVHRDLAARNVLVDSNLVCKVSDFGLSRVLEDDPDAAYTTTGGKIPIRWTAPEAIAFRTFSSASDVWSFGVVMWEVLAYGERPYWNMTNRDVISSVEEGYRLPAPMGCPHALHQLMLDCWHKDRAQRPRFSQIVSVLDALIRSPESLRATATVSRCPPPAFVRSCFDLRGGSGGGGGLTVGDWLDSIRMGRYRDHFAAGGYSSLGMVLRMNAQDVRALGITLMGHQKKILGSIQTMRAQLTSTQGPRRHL

[19] = Cmax in Sprague-Dawley rat at 4 mg/kg, iv measured after 0.03 to 24 hrs by HPLC/MS analysis; type: ADME, organism-based; set-up: dose 4 mg/kg, route intravenous; details: in vivo
[20] = molecular target: T2, Muscle, skeletal receptor tyrosine-protein kinase (Homo sapiens, UniProt O15146); assay: Binding affinity to wild type human partial length MUSK (553 to 869 residues) expressed in bacterial expression system preincubated for 1 hr measured after 30 mins by qPCR method
T2 sequence (O15146 whole entry): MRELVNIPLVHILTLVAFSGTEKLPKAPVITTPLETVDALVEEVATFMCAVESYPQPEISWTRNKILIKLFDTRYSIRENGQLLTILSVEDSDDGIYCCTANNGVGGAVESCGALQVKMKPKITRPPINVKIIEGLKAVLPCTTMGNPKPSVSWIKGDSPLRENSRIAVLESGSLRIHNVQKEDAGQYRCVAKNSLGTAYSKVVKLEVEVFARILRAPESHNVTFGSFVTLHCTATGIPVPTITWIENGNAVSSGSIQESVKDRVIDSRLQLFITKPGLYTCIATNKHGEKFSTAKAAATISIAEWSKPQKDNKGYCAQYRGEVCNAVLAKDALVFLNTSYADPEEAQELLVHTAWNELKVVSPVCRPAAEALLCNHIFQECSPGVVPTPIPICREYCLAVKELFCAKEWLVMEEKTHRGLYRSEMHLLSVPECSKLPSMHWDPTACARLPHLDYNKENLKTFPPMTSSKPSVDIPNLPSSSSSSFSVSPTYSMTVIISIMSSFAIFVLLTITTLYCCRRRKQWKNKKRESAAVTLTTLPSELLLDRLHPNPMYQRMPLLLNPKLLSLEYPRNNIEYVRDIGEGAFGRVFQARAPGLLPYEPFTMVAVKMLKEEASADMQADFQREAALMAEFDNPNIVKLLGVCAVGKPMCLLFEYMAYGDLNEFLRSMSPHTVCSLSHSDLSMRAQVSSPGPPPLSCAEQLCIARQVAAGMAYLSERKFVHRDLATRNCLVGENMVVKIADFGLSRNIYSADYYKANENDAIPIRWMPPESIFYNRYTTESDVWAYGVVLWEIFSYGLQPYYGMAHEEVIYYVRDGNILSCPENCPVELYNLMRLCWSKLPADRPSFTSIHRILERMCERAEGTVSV

## Cc1cn(-c2cc(NC(=O)c3ccc4c(c3)CN(c3cncnc3)C[C@H]4C)cc(C(F)(F)F)c2)cn1
[1]
  IC50: > 10 µM

## CC(C)[C@@H]1CN(c2cncnc2)Cc2cc(C(=O)Nc3cc(CN4CCN(C)CC4)cc(C(F)(F)F)c3)ccc21
[1]
  IC50: > 10 µM
[2]
  IC50: > 3 µM

## CC(C)[C@H]1CN(c2cncnc2)Cc2cc(C(=O)Nc3cc(CN4CCN(C)CC4)cc(C(F)(F)F)c3)ccc21
[1]
  IC50: > 10 µM
[2]
  IC50: > 1 µM

## Cc1cn(-c2cc(NC(=O)c3ccc4c(c3)CN(c3cncnc3)C[C@@H]4C)cc(C(F)(F)F)c2)cn1
[1]
  IC50: > 10 µM
[3]
  AUC(0-inf): 788 ng·h/mL
[4]
  AUC(0-inf): 1210 ng·h/mL
[5]
  half-life: 1.5 h
[6]
  bioavailability: 66.8%
[7]
  Cmax: 2190 ng/mL
[8]
  Tmax: 0.5 h
Mus musculus [9]
  Activity: Dose-dependent effect
Mus musculus [10]
  Activity: Active
[11]
  Tmax: 1 h
Mus musculus [12]
  Activity: Active
Mus musculus [13]
  Activity: Dose-dependent effect
[14]
  AUC(0-inf): 2550 ng·h/mL
[15]
  Cmax: 2250 ng/mL
[16]
  bioavailability: 41.6%
[17]
  Cmax: 342 ng/mL
[18]
  AUC(0-inf): 236 ng·h/mL
Ephrin type-A receptor 8
  Kd: 0.55 µM
[19]
  Cmax: 473 ng/mL
[20]
  Kd: 0.53 µM

## CN1CCN(Cc2cc(NC(=O)c3ccc4c(c3)CN(c3ccccc3)CC4)cc(C(F)(F)F)c2)CC1
[1]
  IC50: > 10 µM
[2]
  IC50: > 3 µM
